The structures appear in SMILES notation.

Chain of CRBN-DDB1 (Q96SW2 whole entry): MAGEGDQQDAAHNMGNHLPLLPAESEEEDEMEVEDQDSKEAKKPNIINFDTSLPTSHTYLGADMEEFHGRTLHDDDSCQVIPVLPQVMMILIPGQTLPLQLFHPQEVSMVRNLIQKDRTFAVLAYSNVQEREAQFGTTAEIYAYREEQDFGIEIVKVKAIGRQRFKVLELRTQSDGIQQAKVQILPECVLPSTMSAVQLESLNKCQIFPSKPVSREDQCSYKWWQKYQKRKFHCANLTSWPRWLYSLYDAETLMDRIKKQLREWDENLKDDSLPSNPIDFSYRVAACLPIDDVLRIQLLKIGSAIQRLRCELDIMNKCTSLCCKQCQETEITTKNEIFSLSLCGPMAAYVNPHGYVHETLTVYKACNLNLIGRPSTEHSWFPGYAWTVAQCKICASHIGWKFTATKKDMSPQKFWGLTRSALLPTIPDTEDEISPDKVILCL
Chain of CRBN-DDB1 (Q16531 whole entry partner): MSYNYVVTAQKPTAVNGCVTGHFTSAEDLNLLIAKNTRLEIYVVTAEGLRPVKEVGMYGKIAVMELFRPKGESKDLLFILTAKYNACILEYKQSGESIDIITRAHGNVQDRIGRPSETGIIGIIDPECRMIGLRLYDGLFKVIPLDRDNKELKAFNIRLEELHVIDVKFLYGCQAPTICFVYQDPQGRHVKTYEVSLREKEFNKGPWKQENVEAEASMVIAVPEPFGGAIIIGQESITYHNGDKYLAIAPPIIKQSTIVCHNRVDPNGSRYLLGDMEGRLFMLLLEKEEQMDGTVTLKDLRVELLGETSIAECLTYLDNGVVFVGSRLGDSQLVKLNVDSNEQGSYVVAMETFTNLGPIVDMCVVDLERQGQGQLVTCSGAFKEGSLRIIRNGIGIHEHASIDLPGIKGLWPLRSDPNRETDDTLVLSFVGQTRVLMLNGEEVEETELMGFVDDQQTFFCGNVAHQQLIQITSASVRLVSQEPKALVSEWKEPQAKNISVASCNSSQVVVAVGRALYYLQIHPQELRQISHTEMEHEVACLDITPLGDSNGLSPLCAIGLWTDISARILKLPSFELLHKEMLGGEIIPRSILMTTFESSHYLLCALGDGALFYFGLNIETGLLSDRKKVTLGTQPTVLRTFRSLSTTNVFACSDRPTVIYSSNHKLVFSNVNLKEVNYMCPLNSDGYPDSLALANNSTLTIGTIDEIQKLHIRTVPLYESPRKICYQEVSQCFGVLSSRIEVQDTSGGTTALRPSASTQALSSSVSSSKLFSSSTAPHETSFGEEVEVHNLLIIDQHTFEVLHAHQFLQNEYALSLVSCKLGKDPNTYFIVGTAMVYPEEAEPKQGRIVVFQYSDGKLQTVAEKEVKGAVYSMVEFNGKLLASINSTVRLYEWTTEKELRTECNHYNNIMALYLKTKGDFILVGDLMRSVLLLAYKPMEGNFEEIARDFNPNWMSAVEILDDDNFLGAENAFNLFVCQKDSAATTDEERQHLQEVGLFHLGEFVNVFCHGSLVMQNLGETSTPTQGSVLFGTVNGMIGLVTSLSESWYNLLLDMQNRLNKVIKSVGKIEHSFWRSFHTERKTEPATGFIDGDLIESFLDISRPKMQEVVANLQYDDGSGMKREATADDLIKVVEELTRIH

The experiment concerns the target CRBN-DDB1 (Homo sapiens, UniProt Q96SW2). The experiment in a line: CRBN Fluorescence Polarization Assay with BODIPY-IMid Tracer. It counts as binding. More on the design: unit not given here. The following applies: competition with 30 nM BODIPY-IMiD tracer for 500 nM CRBN-DDB1, 3-fold serial dilution. The procedure:
Promega assay was used to compare bifunctional ligands of the present invention to compete with IMiDs tracer binding to CRBN.
25 uM BODIPY-IMiD tracer (aliquots from Promega 160 uM stock solution)
Buffer: 100 mM Tris pH7.5, 150 mM NaCl, no DTT
Plates: PCR plate 96-well, Black 384-well
384-well plate 20 uL total volume
10 uL of CRBN-DDB1, BODIPY-IMiD added to 10 uL of ligand
A full 384-well assay plate was used to test bifunctional compounds with and without protein, Pomalidomide used as a control. Two 96-well PCR plates were prepared as follows: • 1. Plate 1 • a. To wells A1-A11 on a 96-well PCR plate 100 uM bifunctional compound was added to 40 uL total volume • i. 38 uL of buffer was added • ii. 2 uL was added of 2 mM bifunctional or IMiD compound in DMSO or 2 uL of 0.2 mM for CC220 analogs • b. To well A12 Pomalidomide was added as control • i. 38 uL buffer was added • ii. 2 uL of 2 mM Pomalidomide in DMSO was added • 2. Plate 2 • a. To wells A1-A10 on a 96-well PCR plate 100 uM bifunctional compound was added to 40 uL total volume • i. 38 uL of buffer was added • ii. 2 uL of 2 mM bifunctional compound in DMSO was added • b. To well A11 CC220 control was added • i. 38 uL buffer added • ii. 2 uL of 0.2 mM for CC220 was added • c. To well A12 DMSO control was added • i. Added buffer to 38 uL • ii. Added 2 uL of DMSO • 3. Prepared 7 mL of Buffer with 5% DMSO for serial dilution • a. 26.67 uL to rows B-H on 96-well plate • 4. Serial dilutions of samples in row A1 3-fold • a. 13.3 uL of A1 added to 26.67 uL in A2 • 5. Added 10 uL to 384-well plate • a. Added A1 from Plate 1 to wells A1 and A2 on 384-well plate (top half of 384-well plate) • b. Added A1 from Plate 2 to wells I1 and I2 on 384-well plate ([…] of 384-well plate)
A preparation was made of 500 nM CRBN-DDB1, 30 nM IMiD complex. To 4 mL of the prepared 500 nM CRBN-DDB1, 30 nM BODIPY-IMiD was added 47.6 uL of 46 uM CRBN-DDB1, 3.752 mL of Buffer (4 additions of 938 uL), 200 uL of DMSO, and 4.8 uL of 25 uM BODIPY IMiD stock. This incubated at room temperature for 10 minutes and then 10 uL was added to all wells on 384-well plate except wells M23-24, N23-24, O23-24, P23-24. Gain Control samples were then made consisting of 950 uL of Buffer, 50 uL of DMSO, 1.2 uL of 25 uM BODIPY IMiD stock, and 10 uL was added to wells M23-24, N23-24, O23-24, P23-24.
Consider `O=C1CC[C@@H](N2Cc3c(OCc4ccc(CN5CCOCC5)cc4)cccc3C2=O)C(=O)N1`, for which the Result amounted to 0.16.
Regarding `O=C1CCC(N2Cc3c(OCCO)cccc3C2=O)C(=O)N1` (stereo not drawn) [3-(4-(2-hydroxyethoxy)-1-oxoisoindolin-2-yl)piperidine-2,6-dione], the Result is on record as 0.93.
As for `O=C1CCC(N2Cc3c(OCc4ccc(Cn5ccnc5)cc4)cccc3C2=O)C(=O)N1` (stereo not drawn) [3-(4-((4-((1H-imidazol-1-yl)methyl)benzyl)oxy)-1-oxoisoindolin-2-yl)piperidine-2,6-dione], the figure is 0.16; as for `O=C1CCC(N2Cc3c(OCc4cc(CN5CCOCC5)ccn4)cccc3C2=O)C(=O)N1` (stereo not drawn) [3-(4-((4-(morpholinomethyl)pyridin-2-yl)methoxy)-1-oxoisoindolin-2-yl)piperidine-2,6-dione], 0.94; as for `COc1ccc2c(c1)C(=O)N(C1CCC(=O)NC1=O)C2` (stereo not drawn) [3-(6-methoxy-1-oxoisoindolin-2-yl)piperidine-2,6-dione], 1.43.
Regarding `O=C1CC[C@H](N2Cc3c(OCc4ccc(Br)cc4)cccc3C2=O)C(=O)N1` [(S)-3-(4-((4-bromobenzyl)oxy)-1-oxoisoindolin-2-yl)piperidine-2,6-dione], the Result turned out to be 0.25.
The figure for `O=C1CC[C@H](N2Cc3c(OCc4ccccc4)ccc(Br)c3C2=O)C(=O)N1` [(S)-3-(4-(benzyloxy)-7-bromo-1-oxoisoindolin-2-yl)piperidine-2,6-dione] is 0.1; for `O=C1CC[C@H](N2Cc3cc(OCc4ccccc4)ccc3C2=O)C(=O)N1` [(S)-3-(5-(benzyloxy)-1-oxoisoindolin-2-yl)piperidine-2,6-dione] it is 0.54.
As for `Nc1cccc2c1C(=O)N(C1CCC(=O)NC1=O)C2=O` (stereo not drawn) [Pomalidomide, pomalidomide, reference compound], the figure is 1.57; as for `COC(=O)C1CCCN(Cc2ccc(COc3cccc4c3CN(C3CCC(=O)NC3=O)C4=O)cc2)C1` (stereo not drawn) [methyl 1-(4-(((2-(2,6-dioxopiperidin-3-yl)-1-oxoisoindolin-4-yl)oxy)methyl)benzyl)piperidine-3-carboxylate], 0.06; as for `COC(=O)C1CCN(Cc2ccc(COc3cccc4c3CN(C3CCC(=O)NC3=O)C4=O)cc2)CC1` (stereo not drawn) [methyl 1-(4-(((2-(2,6-dioxopiperidin-3-yl)-1-oxoisoindolin-4-yl)oxy)methyl)benzyl)piperidine-4-carboxylate], 0.05.
As for `COC(=O)C1CCN(Cc2ccc(COc3cccc4c3CN(C3CCC(=O)NC3=O)C4=O)cc2)C1` (stereo not drawn) [methyl 1-(4-(((2-(2,6-dioxopiperidin-3-yl)-1-oxoisoindolin-4-yl)oxy)methyl)benzyl)pyrrolidine-3-carboxylate], the figure is 0.14.

The values are drawn from patent publication US20230045737A1, “SUBSTITUTED ISOINDOLINONES AS MODULATORS OF CEREBLON-MEDIATED NEO-SUBSTRATE RECRUITMENT” (Vividion Therapeutics, Inc., priority 2018, published 2023).
